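Growth conditions: 96-well plates. Treatment: test compound, 48 hours, 5 concentrations. Analysis: linear interpolation between bracketing concentrations; unreached endpoints set to highest concentration. TGI denotes the concentration required for complete inhibition of growth.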 A value given as a limit tells only on which side of the number the result lay.

Test systems include M14 melanoma; NCI-H23 lung; HL-60(TB) leukemia; UACC-257 melanoma; CCRF-CEM leukemia; HCC-2998 colon; U251 CNS; OVCAR-3 ovarian; MALME-3M melanoma; NCI-H522 lung; A549 NSCLC; KM12 colon; PC-3 prostate; SK-MEL-5 melanoma; HOP-62 NSCLC; HOP-92 NSCLC; SF-268 CNS; CAKI-1 renal; TK-10 renal.
What all share (assay): NCI tumour cell line growth inhibition, 48 h

Consider `Cc1cccc2c1C(=O)[C@](C)([C@]1(C)Nc3cccc(C)c3C1=O)N2`, for which the TGI is greater than 100 µM in the assay with M14 melanoma; 77.4 µM with NCI-H23 lung; 0.54 µM in the assay with HL-60(TB) leukemia; greater than 100 µM in the assay with UACC-257 melanoma; 48.3 µM in the assay on CCRF-CEM leukemia; greater than 100 µM in the assay on HCC-2998 colon. In addition, the TGI with U251 CNS was greater than 100 µM; in the assay on OVCAR-3 ovarian, 83.3 µM; with MALME-3M melanoma, greater than 100 µM; with NCI-H522 lung it was 80.9 µM; with A549 NSCLC it was greater than 100 µM; in the assay with KM12 colon, greater than 100 µM. The TGI with PC-3 prostate is greater than 100 µM; with SK-MEL-5 melanoma, greater than 100 µM; in the assay on HOP-62 NSCLC it was 84.9 µM; in the assay with HOP-92 NSCLC, 75.7 µM; in the assay on SF-268 CNS, 55.8 µM; with CAKI-1 renal it was 69.2 µM.
For `Clc1nssc1=Nc1nonc1-c1ccccc1`, the TGI with M14 melanoma was 37.2 µM; in the assay with NCI-H23 lung, 76.6 µM; with HL-60(TB) leukemia it was 34.9 µM; in the assay with UACC-257 melanoma, greater than 100 µM; in the assay with CCRF-CEM leukemia, 90.8 µM; with HCC-2998 colon it was greater than 100 µM. Further, the TGI in the assay with U251 CNS is greater than 100 µM; in the assay with OVCAR-3 ovarian, greater than 100 µM; with MALME-3M melanoma it was 99.2 µM; in the assay with NCI-H522 lung, 43.4 µM; in the assay with A549 NSCLC it was greater than 100 µM; in the assay on KM12 colon, 96 µM. For the same compound, the TGI is greater than 100 µM in the assay with PC-3 prostate; 37 µM with SK-MEL-5 melanoma; greater than 100 µM in the assay with HOP-62 NSCLC; greater than 100 µM in the assay on HOP-92 NSCLC; 34.6 µM in the assay on CAKI-1 renal.
On to `CCN(CC)CCC(=O)c1ccc(C)cc1`, for which the TGI in the assay with M14 melanoma is 35.8 µM; with NCI-H23 lung, 48.1 µM; with HL-60(TB) leukemia, greater than 100 µM; in the assay on UACC-257 melanoma it was 38.9 µM; in the assay with CCRF-CEM leukemia, 31.2 µM; with HCC-2998 colon, greater than 100 µM. Moreover, the TGI with U251 CNS was greater than 100 µM; in the assay on OVCAR-3 ovarian, 33.1 µM; with MALME-3M melanoma it was 42.4 µM; with NCI-H522 lung it was 32.7 µM; with A549 NSCLC, greater than 100 µM; in the assay with PC-3 prostate, greater than 100 µM. The TGI was 25.8 µM with SK-MEL-5 melanoma, greater than 100 µM with HOP-62 NSCLC, 36 µM in the assay with HOP-92 NSCLC and greater than 100 µM with SF-268 CNS.
In the case of `C1CCCCC2(CCCCCCCCC3(CCC1)OCCO3)OCCO2`, the TGI in the assay with M14 melanoma, in the assay with NCI-H23 lung, in the assay on HL-60(TB) leukemia, in the assay with UACC-257 melanoma, with TK-10 renal and in the assay on HCC-2998 colon was greater than 100 µM each time. Further, the TGI with U251 CNS, in the assay with OVCAR-3 ovarian, in the assay with MALME-3M melanoma, in the assay with NCI-H522 lung, with A549 NSCLC and in the assay with KM12 colon was greater than 100 µM in each case. Besides, the TGI in the assay on PC-3 prostate, in the assay on SK-MEL-5 melanoma, in the assay with HOP-62 NSCLC, in the assay with HOP-92 NSCLC, in the assay with SF-268 CNS and in the assay with CAKI-1 renal was greater than 100 µM in each case.
For `CC1(C)CC2=C(Sc3ccccc3N2)C(=O)C1C(=O)C(=O)Nc1cccc([N+](=O)[O-])c1` (centres undefined), the TGI in the assay on M14 melanoma, with NCI-H23 lung, in the assay with HL-60(TB) leukemia, in the assay on UACC-257 melanoma, with TK-10 renal and with CCRF-CEM leukemia was greater than 100 µM throughout. Also, the TGI with HCC-2998 colon, in the assay with U251 CNS, in the assay with OVCAR-3 ovarian, in the assay on MALME-3M melanoma, in the assay on NCI-H522 lung and in the assay with A549 NSCLC was greater than 100 µM throughout. The TGI in the assay with KM12 colon, in the assay with PC-3 prostate, with SK-MEL-5 melanoma, with HOP-92 NSCLC, with SF-268 CNS and with CAKI-1 renal was greater than 100 µM each time.
For `Nc1c2ccccc2nc2ccc3c(=O)cc(-c4ccccc4)oc3c12`, the TGI with M14 melanoma was found to be 2.67 µM; with NCI-H23 lung it was 3.52 µM; in the assay on HL-60(TB) leukemia, 3.07 µM; in the assay on UACC-257 melanoma, 3.39 µM; with TK-10 renal, 3.52 µM; with HCC-2998 colon, 1.9 µM. Moreover, the TGI with U251 CNS turned out to be 1.46 µM; with OVCAR-3 ovarian, 2.85 µM; with MALME-3M melanoma, 3.23 µM; with KM12 colon, 2.16 µM; in the assay with PC-3 prostate, 2.7 µM; in the assay with HOP-92 NSCLC it was 2.59 µM. In the assay on CAKI-1 renal, this compound had a TGI of 2.63 µM.
`O=c1c2cc(-c3ccccc3)sc2nc2n1N=C(c1ccc(Cl)cc1)CS2`: the TGI in the assay on NCI-H23 lung, with HL-60(TB) leukemia, in the assay with UACC-257 melanoma, in the assay on TK-10 renal, with CCRF-CEM leukemia and in the assay with HCC-2998 colon was greater than 100 µM each time. Besides, the TGI in the assay with U251 CNS, in the assay with OVCAR-3 ovarian, in the assay with MALME-3M melanoma, in the assay on NCI-H522 lung, in the assay with A549 NSCLC and in the assay with KM12 colon was greater than 100 µM throughout. Besides, the TGI with PC-3 prostate, in the assay with SK-MEL-5 melanoma, in the assay on HOP-62 NSCLC, in the assay on HOP-92 NSCLC, in the assay on SF-268 CNS and in the assay on CAKI-1 renal was greater than 100 µM throughout.
In the case of `COC(=O)c1ccc(NC(=O)O/N=C(\Cl)C(C)C)cc1`, the TGI in the assay on M14 melanoma was 12 µM; with NCI-H23 lung, 39.3 µM; in the assay with HL-60(TB) leukemia it was 3.66 µM; in the assay with UACC-257 melanoma, 28.6 µM; in the assay on TK-10 renal it was 10.3 µM; in the assay with HCC-2998 colon it was 28.1 µM. Besides, the TGI came out at 30.9 µM in the assay with U251 CNS; 4.17 µM in the assay on OVCAR-3 ovarian; 3.48 µM with MALME-3M melanoma; 1.74 µM in the assay on NCI-H522 lung; 43.2 µM in the assay with A549 NSCLC; 30.2 µM in the assay with KM12 colon. For the same compound, the TGI with PC-3 prostate was 31.1 µM; with SK-MEL-5 melanoma it was 16.1 µM; with HOP-62 NSCLC, 32.9 µM; with HOP-92 NSCLC it was 3.57 µM; with SF-268 CNS, greater than 78.1 µM; with CAKI-1 renal, 3.08 µM.
As to `Cc1ccc(N2C(=O)C=C(C3=C(O)C(=O)N(c4ccc(C)cc4)C3=O)C2=O)cc1`, the TGI in the assay with M14 melanoma, in the assay on NCI-H23 lung, in the assay with HL-60(TB) leukemia, in the assay with UACC-257 melanoma, in the assay on TK-10 renal and in the assay with CCRF-CEM leukemia was greater than 100 µM in each case. In addition, the TGI in the assay with HCC-2998 colon, in the assay on U251 CNS, in the assay with OVCAR-3 ovarian, in the assay on MALME-3M melanoma, with A549 NSCLC and in the assay with PC-3 prostate was greater than 100 µM in each case. For the same compound, the TGI in the assay on SK-MEL-5 melanoma, in the assay on HOP-62 NSCLC, in the assay on HOP-92 NSCLC and in the assay with SF-268 CNS was greater than 100 µM throughout.
As for `O=C1CCCCCCCCCCC1CCCCCBr` (centres undefined), the TGI in the assay with M14 melanoma is 83.6 µM; in the assay with NCI-H23 lung, 74.8 µM; in the assay with UACC-257 melanoma, 58.5 µM; in the assay on TK-10 renal it was greater than 100 µM; in the assay with CCRF-CEM leukemia, 35 µM; in the assay with HCC-2998 colon, 38.6 µM. Besides, the TGI was 43.3 µM in the assay with U251 CNS; 44.7 µM in the assay with OVCAR-3 ovarian; 38.4 µM in the assay with MALME-3M melanoma; 44.4 µM with NCI-H522 lung; greater than 100 µM with A549 NSCLC; 53.7 µM in the assay on KM12 colon. In addition, the TGI with PC-3 prostate was greater than 100 µM; with SK-MEL-5 melanoma, 31.2 µM; with HOP-62 NSCLC it was greater than 100 µM; in the assay on HOP-92 NSCLC it was 67.6 µM; with SF-268 CNS it was greater than 100 µM; in the assay with CAKI-1 renal, 95.1 µM.
Take `CN=c1c2c(c3[nH]c4ccccc4c4cnc1c34)NCCC2=O`: the TGI with M14 melanoma, in the assay on NCI-H23 lung, with UACC-257 melanoma, in the assay with TK-10 renal, in the assay with CCRF-CEM leukemia and in the assay on HCC-2998 colon was greater than 10 µM in each case. For the same compound, the TGI with U251 CNS, in the assay on OVCAR-3 ovarian, in the assay on MALME-3M melanoma, in the assay with NCI-H522 lung, in the assay with A549 NSCLC and in the assay with KM12 colon was greater than 10 µM throughout. Further, the TGI in the assay with PC-3 prostate, in the assay with SK-MEL-5 melanoma, in the assay with HOP-62 NSCLC, in the assay on HOP-92 NSCLC, with SF-268 CNS and in the assay on CAKI-1 renal was greater than 10 µM each time.
Turning to `Cn1c(=O)n2n(c1=O)C(S(=O)(=O)c1ccccc1)C2` (centres undefined), the TGI in the assay with M14 melanoma, with NCI-H23 lung, in the assay on UACC-257 melanoma, with TK-10 renal, in the assay with CCRF-CEM leukemia and in the assay with HCC-2998 colon was greater than 100 µM each time. The TGI with U251 CNS, in the assay on OVCAR-3 ovarian, in the assay with MALME-3M melanoma, in the assay on NCI-H522 lung, with A549 NSCLC and in the assay on KM12 colon was greater than 100 µM in each case. The TGI in the assay on PC-3 prostate, with SK-MEL-5 melanoma, in the assay on HOP-62 NSCLC, in the assay on HOP-92 NSCLC, in the assay on SF-268 CNS and in the assay on CAKI-1 renal was greater than 100 µM throughout.
In the case of `Oc1c(Cl)c(Cl)c(O)c(CCNc2ccc3ncccc3c2)c1Cl`, the TGI with M14 melanoma is 27.1 µM; in the assay with NCI-H23 lung, 25.9 µM; in the assay on HL-60(TB) leukemia, greater than 100 µM; in the assay on UACC-257 melanoma it was 43.6 µM; in the assay on TK-10 renal it was 36.7 µM; in the assay on HCC-2998 colon it was 28 µM. Further, the TGI in the assay on U251 CNS was 36.8 µM; with OVCAR-3 ovarian, 35 µM; in the assay on MALME-3M melanoma it was 35.3 µM; with NCI-H522 lung it was 4.29 µM; in the assay with A549 NSCLC, 47.3 µM; in the assay with KM12 colon, 15.9 µM. For the same compound, the TGI with PC-3 prostate is greater than 100 µM; in the assay with SK-MEL-5 melanoma, 5.52 µM; with HOP-62 NSCLC, 27.7 µM; with HOP-92 NSCLC, greater than 100 µM; in the assay on SF-268 CNS, 18.8 µM; in the assay with CAKI-1 renal it was 25.4 µM.
